Literature values, collected in US20150269865A1, “SYSTEMS AND METHODS FOR PERSONALIZED NUTRIMERS” (priority 2014, published 2015).
Values belong to the molecule of their own block, whether it stands above or below them.

What was measured:
[1] = orally administered, human absorption kinetic studies, PMID 3257913
MTHFR = MTHFR (Homo sapiens, UniProt P42898); details: cofactor of MTHFR or needs to be metabolized into Methyl folate
[2] = PMID 9630738
[3] = in vivo
[4] = PMID 9630738; compared with folic acid
[5] = PMID 21735411; compared with Ergocalciferol (vitamin D2)
[6] = PMID23482308
[7] = PMID23482308; remark: listed apart in the source
[8] = human subject treated even for a few months; PMID 23751310
copper absorption = details: PMID 1726403
[9] = in vivo; remark: listed apart in the source
[10] = human, in vivo

MTHFR, sequence (P42898 whole entry): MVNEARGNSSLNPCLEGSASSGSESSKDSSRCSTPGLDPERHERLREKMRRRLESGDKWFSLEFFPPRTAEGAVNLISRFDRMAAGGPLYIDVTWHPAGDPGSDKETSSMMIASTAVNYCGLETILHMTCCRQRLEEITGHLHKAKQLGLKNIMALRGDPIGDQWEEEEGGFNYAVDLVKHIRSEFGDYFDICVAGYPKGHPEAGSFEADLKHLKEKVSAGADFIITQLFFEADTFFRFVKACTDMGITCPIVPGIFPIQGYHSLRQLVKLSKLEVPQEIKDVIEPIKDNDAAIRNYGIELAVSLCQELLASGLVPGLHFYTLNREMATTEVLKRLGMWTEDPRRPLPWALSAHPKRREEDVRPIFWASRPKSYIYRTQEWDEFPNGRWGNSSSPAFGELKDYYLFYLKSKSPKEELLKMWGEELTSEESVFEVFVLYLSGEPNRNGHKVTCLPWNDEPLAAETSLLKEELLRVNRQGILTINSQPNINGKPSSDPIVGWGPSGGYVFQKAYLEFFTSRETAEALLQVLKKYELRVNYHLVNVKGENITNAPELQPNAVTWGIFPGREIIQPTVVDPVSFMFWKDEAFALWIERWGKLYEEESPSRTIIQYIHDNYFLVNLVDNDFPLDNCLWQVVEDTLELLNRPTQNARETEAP

Molecule: Nc1nc(=O)c2c([nH]1)NCC(CNc1ccc(C(=O)N[C@@H](CCC(=O)O)C(=O)O)cc1)N2C=O (mixture of isomers) [Folinic acid]
bioavailability [1]: 92%
Cofactor (MTHFR): Not a cofactor.
Stability: half-life in the body compared with folic acid [2]: longer half-life in
transport through the blood brain barrier into the central nervous system [3]: readily transported
Therapeutic effects [4]: more metabolically

Molecule: C=C1CC[C@H](O)C/C1=C/C=C1\CCC[C@]2(C)[C@@H]([C@H](C)CCCC(C)C)CC[C@@H]12 [Cholecalciferol]
effect on mortality [5]: decrease mortality

Molecule: [Zn] [zinc]
effect on copper absorption (copper absorption): inhibits copper absorption

Second part, led by results:

Cofactor (MTHFR): Not a cofactor.
Stability upon exposure to heat compared with natural forms of folate in the diet [7]: FA is more stable
Molecule: Nc1nc2ncc(CNc3ccc(C(=O)N[C@@H](CCC(=O)O)C(=O)O)cc3)nc2c(=O)[nH]1 [Folic acid (FA), Folic acid]
Side effects: masking of vitamin B12 deficiency [6]: “does not mask

effect on vitamin B12 and folate levels [8]: decrease of vitamin B12 and folate
Molecule: CN(C)C(=N)N=C(N)N [metformin]

effect on absorption of desipramine (Norpramin) [9]: interferes with the absorption
Molecule: Vitamin E

B12 intake above which absorbance declines with increased supplementation [10]: about 10 mcg
Molecule: cobalamin [B12]
